Data published in patent publication US10213436B2, “Methods of treating cancer using aurora kinase inhibitors” (Millennium Pharmaceuticals, Inc., priority 2012, dated 2019).
Like-named read-outs stand apart in the source and are kept apart here.

Legend:
cells = cells treated with MLN8054; cited from earlier work
[1] = Single agent maximum tolerated dose in mice
[2] = mouse, in vivo
NCI-H69 = NCI-H69 small cell lung cancer xenograft model
Protocol: Procedure. […] Treatments began when tumors reached approximately 200 mm^3 following subcutaneous tumor implantation with NCI-H69 tumor fragments for all groups containing 10 female immunocompromised nu/nu mice per group. MLN8237 was tested at a dose of 20 mg/kg administered PO on a QIDx21-Q8Hx2 schedule and at doses of 20 and 10 mg/kg on a QIDx21 schedule. Paclitaxel was tested at doses of 30 and 15 mg/kg administered IV on a Q7Dx3 schedule. Each paclitaxel dose was combined with each MLN8237 dose on the QDx21 treatment schedule. In the combination treatment groups MLN8237 was administered first to the animals, followed immediately by the administration of paclitaxel. One group served as a vehicle-treated control group receiving PO treatment with the MLN8237 vehicle on a QIDx21 schedule.

NCI-H82 = NCI-H82 small cell lung cancer xenograft model

## O=C(O)c1ccc(Nc2ncc3c(n2)-c2ccc(Cl)cc2C(c2c(F)cccc2F)=NC3)cc1 [MLN8054]
cells
  cell fate after repeated defective mitotic divisions: undergo senescence
  chromosome content of treated cells: develop aneuploidy that increases over time

## CC[C@@]1(O)C(=O)OCc2c1cc1n(c2=O)Cc2cc3c(CN(C)C)c(O)ccc3nc2-1 [topotecan]
[1]; IV
  single agent maximum tolerated dose: 1.5 mg/kg Q5D

## COc1cc(Nc2ncc3c(n2)-c2ccc(Cl)cc2C(c2c(F)cccc2OC)=NC3)ccc1C(=O)[O-].O.[Na+] [alisertib, sodium 4-{[9-chloro-7-(2-fluoro-6-methoxyphenyl)-5H-pyrimido[5,4-d][2]benzazepin-2-yl]amino}-2-methoxybenzoate monohydrate]
[2]
  single agent maximum tolerated dose in mice: 20 mg/kg BID
NCI-H69; single agent alisertib 20 mg/kg BID (maximum tolerated dose)
  antitumor activity: prolonged regressions
NCI-H82; single agent alisertib 10 mg/kg QD
  antitumor activity: no antitumor activity

## CC(=O)O[C@H]1C(=O)[C@@]2(C)[C@H]([C@H](OC(=O)c3ccccc3)[C@]3(O)C[C@H](OC(=O)[C@H](O)[C@@H](NC(=O)c4ccccc4)c4ccccc4)C(C)=C1C3(C)C)[C@]1(OC(C)=O)CO[C@@H]1C[C@@H]2O [paclitaxel]
[1]
  single agent maximum tolerated dose in mice: 30 mg/kg QD
NCI-H69; single agent paclitaxel 30 mg/kg (maximum tolerated dose)
  antitumor activity: sustained cures
NCI-H82; single agent paclitaxel 15 mg/kg QW
  antitumor activity: no antitumor activity
